A short description of data set [1]: Thermodynamic aqueous solubility (shake-flask, HPLC). To be noted: for solubility at 48 h: 37 °C, water, thermodynamic from solid. The format is physicochemical. The method, then:
The aqueous solubility of RetroABZ was assessed using the shake-flask saturation method, as described in previous studies. […] Subsequently, the solution was filtered through a 0.2 μm filter (Phenex-NY 4mm, Torrance, CA, USA). The aqueous solubility of the compound was then determined using an HPLC method. Experimentally, the compound RetroABZ was analyzed with high-performance liquid chromatography (HPLC PerkinElmer 200, Waltham, Massachusetts). The HPLC analysis was performed using an ultraviolet detector (UV/VIS 200). The analite was monitored at a wavelength of 254 nm. Chromatographic separation was performed using a Phenomenex Luna C18 (4.6 × 150 mm, 5 µm, Torrance, CA, USA). The mobile phase utilized in the study consisted of a mixture of methanol and water in a ratio of 60:40 (v/v). The elution from the stationary phase was conducted at a constant flow rate of 1 mL/min (isocratic mode). Aliquots of 20 µL were injected into the HPLC system and the total run time for each injection was set at 10 min; the analysis was performed for triplicate. […] Chromatographic separation was performed using a Phenomenex Luna C18 (4.6 × 150 mm, 5 µm). The mobile phase utilized was a mixture of methanol and a 0.05 M phosphate buffer (pH 5.7), 70:30 (v:v). The flow rate was kept constant at 1 mL/min. To prepare the saturated solution of the compound (1 mg/mL), it was stirred for 48 h at a constant temperature of 37 ± 2 °C. Subsequently, the solution was filtered through a 0.2 µm filter (Phenex-NY 4 mm). Aliquots of 20 µL were injected into the HPLC system, and the analysis was performed for triplicate.

The nature of data set [2]: In vitro cytotoxic assay (CellTiter 96 AQueous One) in HaCaT. The format is cell-based, human. To be noted: human, HaCaT cells (immortalized keratinocytes). On the procedure: (§1) The cytotoxic assay of RetroABZ was carried out in Huh-7 (human hepatocellular carcinoma cell line) cells acquired from ATCC (American Type Culture Collection, Manassas, VA, USA). We also included an immortalized human epidermal keratinocyte line (HaCaT) as a control of non-cancerous cells. The cells were cultured in a DMEM medium (Invitrogen, Thermo Fisher Scientific, Inc., Waltham, MA, USA), supplemented with 10% fetal bovine serum (SFB, Invitrogen) and 2 mM glutamine. All cultures were maintained under standard culture conditions (37 °C and 5% CO2). For the cytotoxic assessment in a 96-well plate, 5000 cells per well were planted. […] The cellular viability was next calculated utilizing the CellTiter 96® AQueous One Solution Cell Proliferation Assay kit (Promega, Madison, WI, USA), following the manufacturer’s instructions. The experiments were carried out in triplicate in separate experiments. The Prism 8.0 statistical tool (Graphpad Software Inc., La Jolla, CA, USA) was used to examine the data, and a regression analysis was used to obtain the IC50.

Data set [3] has as its system HaCaT (immortalized human keratinocytes). The description is as above. The format is cell-based. To be noted: 48 h. On the procedure: as §1
The next data set concerns G. lamblia (WB strain). Put plainly: In vivo antigiardial CD-1 mouse model. More on the design: species or system CD-1 mice. Conditions: for ED50: Giardia duodenalis, 48 h. On the procedure:
The in vivo antigiardial activity of the compounds was assessed following a previously described phenotypic drug screening method. Female CD-1 mice (16–24 g) were obtained from the animal house facility at Universidad Autónoma Metropolitana, Xochimilco, and were maintained under standard laboratory conditions. The experimental protocols were reviewed and approved by the Animal Care and Use Committee, ensuring compliance with the guidelines for the care and use of laboratory animals. The giardicidal effect of RetroABZ was evaluated on mice infected with trophozoites of the G. lamblia WB strain. Mice were orally treated with a mebendazole solution (10 mg/mouse/day) for 3 consecutive days to ensure their freedom from any potential protozoan infections. One week after treatment, three consecutive fecal examinations were conducted to confirm the absence of protozoan infections before proceeding with experimental infection. Mice (n = 6 per group) were intragastrically infected with 1 × 10^6 trophozoites in 300 µL of a TYI-S-33 medium (Manassas, VA, USA) using a silastic tube ([…]. outside diameter) attached to a 1 mL syringe. Six days after infection, mice were treated intragastrically with 300 µL of RetroABZ dissolved in 1 mL of a 2% DMSO solution in water. […] Five single doses (0.018, 0.037, 0.075, 0.15, and 0.3 mg/kg) of both compounds were evaluated. Forty-eight hours after the treatment (8 days post-infection), the mice were euthanized, and the entire small intestine was removed, opened longitudinally, and placed in 10 mL of a 10% PAF fixer for a minimum of 2 h. Tubes were then vortexed to ensure complete detachment of the trophozoites, and the number of organisms present was calculated for both the treated and control groups.
A data analysis was performed utilizing a Probit analysis. The percentage of surviving trophozoites was calculated by comparing their growth with the control group. To determine the dose required to kill 50% of the trophozoites (ED50), along with the 95% confidence limits, a Probit plot against the logarithm of the drug concentration was generated.

Data set [4] relates to Huh-7 (human hepatocellular carcinoma cell line). The data set is described as follows: In vitro cytotoxic assay (CellTiter 96 AQueous One) in Huh-7. The format is cell-based. The method, then: as §1
Assay in data set [5]: as above
It counts as cell-based, human. To be noted: human, Huh-7 cells, 48 h. The method, then: as §1

Data set [6] concerns G. lamblia strain WB trophozoites. The data set is described as follows: In vitro giardicidal assay (trophozoite subculture, Probit analysis). It counts as cell-based, Giardia lamblia. To be noted: for IC50: Giardia duodenalis. The method, then: G. lamblia strain WB was cultured in a TYI-S-33 medium (Manassas, VA, USA) supplemented with 10% calf serum and bovine bile. In vitro susceptibility tests were conducted using 4 × 10^4 trophozoites of G. lamblia. […] Additionally, a control group was incubated solely in a culture medium containing DMSO. Following the incubation period, the trophozoites were washed and subcultured in a fresh medium without drugs for an additional 48 h. Subsequently, the trophozoites count was performed, and the median inhibitory concentration (IC50) was calculated with a Probit analysis. All experimental procedures were replicated in triplicate.

The conditions of data set [7]: cited from earlier work.
Data set [8] concerns HaCaT (immortalized human keratinocytes). More on the design: method as in PMID 35036753. To be noted: albendazole, reported value; cited from earlier work.
For data set [9] the following is noted: cited from earlier work. The source holds these as a separate data set.
The subject of data set [10] is Huh-7 (human hepatocellular carcinoma cell line). More on the design: method as in PMID 35036753. Conditions: albendazole, reported value; cited from earlier work.
The mark [11] stands for this setting: infected CD-1 mice, single intragastric dose, 48 h after treatment, read-out: ED50.

Values after ≈ are worked out from the molar mass of the structure shown. Values joined by “and” are separate entries in the source; they are usually repeats but may differ in a detail not shown here. Identical values can stand only once. Like-named read-outs stand apart in the source and are kept apart here. A value given as a limit tells only on which side of the number the result lay.

`CCCSc1nc2cc(NC(=O)OC)ccc2[nH]1` [RetroABZ, Methyl (2-(propylthio)-1H-benzo[d]imidazol-5-yl)carbamate] gave a solubility at 48 h in data set [1] (Solubility in water) of 246 µg/mL (≈ 926 µM). Also, the Solubility in water in [1] (48 h) was found to be 245.74 ± 4.07 µg/mL (≈ 926 µM). Further, the CC50 at 48 h in [2] and in data set [5] was greater than 300 µM each time. The CC50 in data set [3] came out at 588 ± 18.5 µM; in [4] (48 h), 313 ± 22.2 µM. Besides, the ED50 in the data set with G. lamblia (WB strain) (setting [11]) was 0.0188 µmol/kg and 0.005 mg/kg. Besides, the “in vivo giardicidal activity relative to albendazole” value in the data set with G. lamblia (WB strain) (ratio of ED50 values) came out at 11 fold. Moreover, in the data set on G. lamblia (WB strain) (ratio of ED50 values), the “in vivo potency relative to metronidazole” value is reported as 39 fold. In addition, the “Selectivity Index CC50/IC50 Huh-7” value in data set [4] (CC50 Huh-7 / IC50 G. lamblia) is given as 3768. Besides, in [6] (trophozoites, 48 h incubation at 37 °C then 48 h subculture, read-out: IC50 G. lamblia), the IC50 worked out at 0.083 ± 0.013 µM. The “in vitro giardicidal activity relative to albendazole” value in data set [6] (ratio of IC50 values) was determined as 2.4 times.
Consider `CCCSc1ccc2nc(NC(=O)OC)[nH]c2c1` [Albendazole], for which the solubility at 48 h in data set [1] (37 ± 2 °C, 48 h, read-out: Solubility in water) amounted to 10.6 ± 0.7 µg/mL (≈ 39.8 µM). The oral bioavailability in data set [7] is 5%; in data set [7] (stated in discussion, no reference given), “less than 5%”. Besides, the figures for the CC50 in data set [8] and in data set [10] were 118.2 ± 1 µM and 79.7 ± 1 µM, respectively. Moreover, in the data set on G. lamblia (WB strain), the ED50 is 0.055 mg/kg and 0.207 µmol/kg. For the same compound, the documented solubility in [9] (25 °C) was 0.02 µg/mL. In addition, in [9], the reported solubility is 0.2 µg/mL. The IC50 in data set [6] (48 h, read-out: IC50 G. lamblia, trophozoites, 48 h incubation at 37 °C then 48 h subculture) amounted to 0.196 ± 0.011 µM.
In the case of `Cc1ncc([N+](=O)[O-])n1CCO` [Metronidazole, reference compound], in the data set on G. lamblia (WB strain) (setting [11]), the ED50 was 0.194 mg/kg and 1.13 µmol/kg.

The solubility is how much of the substance goes into solution per volume. One may read the ED50 as the dose at which the effect has come halfway, by size or by number of responders. Usually IC50 stands for the concentration needed to halve the response being measured.
